Experimental data from patent US20030105034A1, “Pyridine carboxy derivatives and an aminosugar” (Astion Deveopment A/S, priority 2001, published 2003).
Entries after “also recorded” stand apart in the source; their conditions may differ. Marks after values point to notes of the source that are not given here.

Key:
[1] = tested on: tetradecanoyl phorbol acetate (TPA) induced ear inflammation; experiment: TPA induced ear inflammation test in the mouse, Compound 122 compared to its components (Example 241); type: in vivo; conditions: for Inhibition of ear swelling (%): versus vehicle group A, 3 h after TPA; for inhibition of ear swelling, result in words: Compound 122 7.0 mg, niacinamide 3.67 mg, N-acetylglucosamine 3.33 mg per application
Description: (§1) The objective of this study is to assess the effect of Compound 122 as compared to its components in the tetradecanoyl phorbol acetate (TPA) induced ear inflammation test in the mouse, a commonly employed method for screening and evaluation of antiinflammatory drugs. Locoid® cutaneous solution (0.1% hydrocortisone 17-butyrate) is used as a positive control.
The test articles are the complex of the invention prepared according to example 118 (Compound 122 in the following) and its components niacinamide and N-acetylglucosamine, all obtained from Astion A/S, Denmark.
The study is performed in female SPF NMRI mice of the stock Bom:NMRI from M & B A/S, Denmark. At start of the acclimatisation period the mice is in the weight range of 18-20 g. An acclimatisation period of 7 days is allowed.
On day 0 the test substances are applied in 20 μl volumes to the inner surface of the right ear 20 minutes before and again 20 minutes after TPA treatment. All groups are treated with 20 μl acetone on the left ear and with 20 μl TPA, 400 μg/ml, on the right ear.
Three hours after the TPA application the mice are sacrificed, the ears cut off and weighed.
The amount of niacinamide and N-acetylglucosamine administered to groups C and D corresponds exactly to the amount of the two substances present in Compound 122 administered to group B.
(§2) Mean weights and standard deviations are calculated. Percent inhibition of the oedema compared with group A is calculated for the groups B-E. Weights of the left ears are used to assess the comparability of the groups and to calculate differences in weight between left and right ear.
Ear swelling is determined as the difference between the weight of right and left ear. The following inhibition of ear swelling is observed in groups B-E: […]

[2] = tested on: tetradecanoyl phorbol acetate (TPA) induced ear inflammation; experiment: TPA induced ear inflammation test in the mouse, two doses of two complexes (Example 239); type: in vivo; conditions: Locoid solution 0.1%, 0.02 mg per application; positive control; ears weighed 3 h after TPA
Description: as §1, with “two doses of two chemical complexes of the invention topically administered” for “Compound 122 as compared to its components”
At start of the acclimatisation period the mice is in the weight range of 18-20 g. An acclimatisation period of 7 days is allowed.
On the day of arrival the animals is randomly allocated to 7 groups, each of 9 mice.
The test substances are applied in 20 μl volumes to the inner surface of the right ear on day 0. 20 minutes before and again 20 minutes after TPA treatment. All groups is treated with 20 μl acetone on the left ear and with 20 μl TPA, 400 μg/ml, on the right ear.
as §2, with “Three hours after the TPA application the mice are sacrificed, the ears cut off and weighed. Mean” for “Mean”, “group 1” for “group A”, “groups 2-7.” for “groups B-E.”, “ears is” for “ears are”

Compound | Inhibition of ear swelling (%) ([1]; 3.33 mg per application, group D) | inhibition of ear swelling, result in words [1] | Inhibition of ear swelling (%) ([1]; 3.67 mg per application, group C) | inhibition of ear swelling [2] [%] | Inhibition of ear swelling (%) ([1]; 0.02 mg per application, group E, positive control)
CC(=O)N[C@H]1C(O)O[C@H](CO)[C@@H](O)[C@@H]1O (stereo partly drawn) [N-acetylglucosamine] | 31* % | only displayed a modest inhibition; also recorded: showed much lesser inhibition of ear swelling | – | – | –
NC(=O)c1cccnc1 [Niacinamide] | – | only displayed a modest inhibition; also recorded: showed much lesser inhibition of ear swelling | 31** % | – | –
CCCC(=O)O[C@]1(C(=O)CO)CC[C@H]2[C@@H]3CCC4=CC(=O)CC[C@]4(C)[C@H]3[C@@H](O)C[C@@]21C [Hydrocortisone 17-butyrate, hydrocortisone 17-butyrate] | – | – | – | 90 | 89*** %
